# In the RepoRT retention time repository (doi:10.1021/acs.analchem.1c00972):
# What was measured:
# [1] = RP, Waters ACQUITY UPLC BEH C18, 100 × 1 mm, 1.7 µm, 50 °C, 0.3 mL/min, estimated dead time 0.17 min; A: water + 0.1% formic acid + 20 mM ammonium formate; B: methanol + 0.1% formic acid + 20 mM ammonium formate; gradient (min/%B) 0/0 15/100 21/100 22/0 30/0; conditions: stereoisomer not certain
# [2] = RP, Waters ACQUITY UPLC BEH C18, 100 × 1 mm, 1.7 µm, 50 °C, 0.3 mL/min, estimated dead time 0.17 min; A: water + 10 mM ammonium bicarbonate; B: 10% water + 90% methanol + 10 mM ammonium bicarbonate; gradient (min/%B) 0/0 15/100 21/100 22/0 30/0; conditions: stereoisomer not certain
LC retention time [1],LC retention time [2],Structure (SMILES)
11.4 min,10.6 min,COCC(C)N(C(=O)CS(=O)CC(=O)O)c1c(C)csc1C (stereo not given) [Dimethenamid M31]
8.5 min,4.91 min,COc1ccc2c(c1)OC(O)C(=O)N2O (stereo not given) [DIMBOA]
15.9 min,16 min,"Oc1cc(-c2ccc(Cl)cc2)ccc1Cl [3-Hydroxy-4,4'-dichlorobiphenyl]"
8.5 min,11.4 min,CCN1CCN(c2cc3c(cc2F)c(=O)c(C(=O)O)cn3C2CC2)CC1 [Enrofloxacin]
15.9 min,16.3 min,CCN(CC)C(=O)SCc1ccccc1Cl [Orbencarb]
16.4 min,16.6 min,C#CC1(OC(C)=O)CCC2C3CCC4=CC(=NO)CCC4C3CCC21CC (stereo not given) [Norgestimate]
12.8 min,13 min,"CNC(=O)Nc1ccc(Cl)c(Cl)c1 [1-(3,4-Dichlorphenyl)-3-methyl-Harnstoff]"
8.36 min,13.1 min,Cc1cccc(C)c1NC(=O)C1CCCCN1C (stereo not given) [Mepivacaine]
11.4 min,11.6 min,Nc1c(Cl)cnn(-c2ccccc2)c1=O [iso-Chloridazon]
13.1 min,18.2 min,CC(COc1ccccc1Cc1ccccc1)N1CCCCC1 (stereo not given) [Benproperine]
7.14 min,5.61 min,Cc1ccnc(NS(=O)(=O)c2ccc(N)cc2)n1 [Sulfamerazine]
13.7 min,14 min,CSC(=O)c1cccc2nnsc12 [Acibenzolar-S-methyl]
14.3 min,16.9 min,CCC1OC(=O)C(C)C(OC2CC(C)(OC)C(O)C(C)O2)C(C)C(OC2OC(C)CC(N(C)C)C2O)C(C)(O)CC(C)C(=NOCOCCOC)C(C)C(O)C1(C)O (stereo not given) [Roxithromycin]
5.38 min,5.35 min,O=C1NC(=O)C2CC=CCC12 (stereo not given) [Tetrahydrophthalimide]
17.8 min,18.2 min,CCCCC(CC)COC(=O)C(C#N)=C(c1ccccc1)c1ccccc1 (stereo not given) [Octocrylene]
8.49 min,14 min,CN(C)CCOC(C)(c1ccccc1)c1ccccn1 (stereo not given) [Doxylamine]
10.8 min,12.4 min,CNCCCC(C#N)(c1ccc(OC)c(OC)c1)C(C)C (stereo not given) [D617]
6.51 min,6.82 min,CC=C1CC2(CO)OC2(C)C(=O)OCC2=CC[N+]3([O-])CCC(OC1=O)C23 (stereo not given) [Erucifoline N-oxide]
4.07 min,7.04 min,CN(C)c1ccncc1 [4-(Dimethylamino)pyridine]
13.1 min,14.2 min,CCCSc1ccc2nc(NC(=O)OC)[nH]c2c1 [Albendazole]
10.4 min,11.2 min,"COc1cc(Cl)c(OC)cc1N [4-Chloro-2,5-dimethoxyaniline]"

LC retention time [1],LC retention time [2],Structure (SMILES)
8.4 min,8.43 min,CC[N+]1([O-])CCCC1CNC(=O)c1cc(S(=O)(=O)CC)c(N)cc1OC (stereo not given) [Amisulpride N-Oxide]
11.2 min,17.4 min,CCC1OC(=O)C(C)C(OC2CC(C)(OC)C(O)C(C)O2)C(C)C(OC2OC(C)CC(N(C)C)C2O)C(C)(O)CC(C)CN(C)C(C)C(O)C1(C)O (stereo not given) [Azithromycin]
6.99 min,7.37 min,COC(C)C(O)(C(=O)OCC1=CC[N+]2([O-])CCC(O)C12)C(C)(C)O (stereo not given) [Europine N-oxide]
11.5 min,9.67 min,COc1nc(C)nc(NC(=O)NS(=O)(=O)c2ccccc2OCCCl)n1 [Triasulfuron]
14.2 min,14.5 min,CC12CCC(=O)C=C1C1CC1C1C2CCC2(C)C1C1CC1C21CCC(=O)O1 (stereo not given) [Drospirenone]
15.9 min,18.8 min,CC(C)(C)c1ccc(C(=O)CCCN2CCC(OC(c3ccccc3)c3ccccc3)CC2)cc1 [Ebastin]
12 min,12.2 min,CC12C=CC(=O)C=C1CCC1C2C(=O)CC2(C)C1CCC2(O)C(=O)CO (stereo not given) [Prednisone]
13.9 min,16.7 min,Clc1ccccc1C(c1ccccc1)(c1ccccc1)n1ccnc1 [Clotrimazole]
7.5 min,11.1 min,CC=C1C2C=C(C)CC1(N)c1ccc(=O)[nH]c1C2 (stereo not given) [Huperzin A]
10.6 min,15.4 min,Nc1c(Br)cc(Br)cc1CNC1CCC(O)CC1 (stereo not given) [Ambroxol]
13.9 min,14.2 min,O=C(Nc1ccc(Cl)cc1C(O)c1ccccc1)c1ccncc1 (stereo not given) [Inabenfide]
4.47 min,3.99 min,CC(=O)Nc1c(I)c(NC(C)=O)c(I)c(C(=O)O)c1I [Diatrizoate]
11.9 min,14.7 min,Clc1ccc2c(c1)CCc1cccnc1C2=C1CCNCC1 [Desloratadine]
12.8 min,13.1 min,C=C1C(=O)OC2C1CCC(C)=CCCC1(C)OC21 (stereo not given) [Parthenolid]
9.43 min,14.6 min,CCC12CCCN3CCc4c(n(c5ccccc45)C(O)(C(=O)OC)C1)C32 (stereo not given) [Vincamin]
8.31 min,8.38 min,Clc1ccccn1 [2-Chloropyridine]
7.34 min,14.1 min,CCN(CCO)CCCC(C)Nc1ccnc2cc(Cl)ccc12 (stereo not given) [Hydroxychloroquine]
15.5 min,15.9 min,O=C(c1ccccc1)C1CCCCC1 [Cyclohexylphenylketone]
7.92 min,7.83 min,Cc1ccc(S(=O)(=O)O)c(C)c1 [m-Xylene-4-sulfonic acid]
7.39 min,9.04 min,CCNc1nc(NCC)[nH]c(=O)n1 [Simazine 2-Hydroxy]

Structure (SMILES),LC retention time [1],LC retention time [2]
CC1=C2C3OC(=O)C(C)C3CCC2(C)C=CC1=O (stereo not drawn) [alpha-Santonin],11.3 min,11.5 min
CC=C1CC(C)C(O)(CO)C(=O)OCC2=CCN3CCC(OC1=O)C23 (stereo not given) [Retrorsine],7.62 min,11.6 min
O=C(Oc1ccccc1)c1ccccc1C(=O)Oc1ccccc1 [Diphenylphthalate],15.7 min,16 min
O=NN1CCOCC1 [N-Nitrosomorpholine],3.69 min,3.78 min
OC(Cc1ccccc1Cl)(Cn1cncn1)C1(Cl)CC1 (stereo not given) [Prothioconazole-desthio],15 min,15.3 min
C=CCOC(=O)C(C)(C)OC(=O)c1cc(-n2c(=O)cc(C(F)(F)F)n(C)c2=O)ccc1Cl [Butafenacil],14.8 min,15.1 min
COc1cc2c(c3oc4cccc(O)c4c(=O)c13)C1C=COC1O2 (stereo not given) [Sterigmatocystin],14.6 min,15 min
CC12CCC(=O)C=C1CCC1C2CCC2(C)C1CCC2(C)O (stereo not drawn) [17alpha-Methyltestosterone],14.7 min,15 min
CCOP(=S)(OCC)ON=C(C#N)c1ccccc1 [Phoxim],15.9 min,14.4 min
"CC12CCC3C(CCC4=CC(=O)CCC43C)C1CCC2=O (stereo not given) [4-Androstene-3,17-dione]",14 min,14.2 min
CCc1cnc(C2=NC(C)(C(C)C)C(=O)N2)c(C(=O)O)c1 (stereo not given) [Imazethapyr],11.2 min,8 min
CCOc1ccc(C(C)(C)COCc2cccc(Oc3ccccc3)c2)cc1 [Etofenprox],13.8 min,14.1 min
"COc1cc2c3c(c1OC)-c1ccccc1CC3N(C)CC2 (single isomer, unassigned; (-)) [(-)-Nuciferine]",10.5 min,15.6 min
CC(C)(C)c1cc([N+](=O)[O-])cc([N+](=O)[O-])c1O [Dinoterb],15.7 min,12.6 min
COc1nc(NC(C)C)nc(NC(C)C)n1 [Prometon],12.2 min,14.1 min
CC(=O)c1cc(C(C)(C)C)cc2c1CCC2(C)C [Celestolide],17.5 min,17.9 min
COP(=O)(OC)SCn1c(=O)oc2cc(Cl)cnc21 [Azamethiphos],11.4 min,11.6 min
CC(C)=CCOc1c2occc2cc2ccc(=O)oc12 [Imperatorin],14.3 min,14.6 min
CC1CC2(OC2C)C(=O)OC2CCN3CC=C(COC(=O)C1(C)O)C23 (stereo not given) [Jacobine],6.52 min,10.1 min
COc1cc2c(c(OC)c1OC)-c1ccc(OC)c(=O)cc1C(NC(C)=O)CC2 (stereo not given) [Colchicine],11.4 min,11.6 min
CC(=O)c1cc2c(cc1C)C(C)(C)C(C)C2C(C)C (stereo not given) [Traseolide],17.8 min,18.2 min
CCOCN(C(=O)CCl)c1c(C)cccc1CC [Acetochlor],15 min,15.3 min
COC1CC(CC2CCC(C)C(C(C)C(=O)O)O2)OC2(OC(C)(C3CCC(C)(C4OC(C5OC(O)(CO)C(C)CC5C)CC4C)O3)CC2C)C1C (stereo not given) [Nigericin],18.8 min,19.7 min
CN1C2CCC1C(C(=O)O)C(OC(=O)c1ccccc1)C2 (stereo not given) [Benzoylecgonin],11.5 min,11.6 min
